Earlier results, collected in patent US5112837A, “Quinoline derivatives having anti-tumor activity” (Imperial Chemical Industries PLC, priority 1987, dated 1992).

Key:
[1] = test system: human breast, ovarian and liver cancer; settings: clinical trials
[2] = literature references

For `C#CCN(Cc1ccc2nc(N)[nH]c(=O)c2c1)c1ccc(C(=O)N[C@@H](CCC(=O)O)C(=O)O)cc1` [CB3717], the “activity against human cancer” value [1] is listed as “promising activity against human breast, ovarian and liver cancer” and the “symptoms of toxicity in humans” value [2] is listed as “symptoms of toxicity in humans, particularly in relation to the liver and kidney”.
